The values below come from US20120309750A1, “5-MEMBERED HETEROCYCLE DERIVATIVES AND MANUFACTURING PROCESS THEREOF” (ILDONG PHARM CO., LTD., priority 2010, published 2012).

For one assay, the target named is yeast HSP90 (Saccharomyces cerevisiae, UniProt P02829). Nature of the assay: Hsp90 ATPase assay (malachite green). It counts as biochemical. The method, then: (§1) For present invention, the ATPase activity of yeast HSP90 was measured using malachite green assay. Formula I compounds for primary antitumoral activity were treated in human colorectal cancer cells (HCT116) showing increased expression levels of HSP90 client protein and cotoxicity IC50 values was measured as a result.
yeast HSP90, sequence (P02829 whole entry): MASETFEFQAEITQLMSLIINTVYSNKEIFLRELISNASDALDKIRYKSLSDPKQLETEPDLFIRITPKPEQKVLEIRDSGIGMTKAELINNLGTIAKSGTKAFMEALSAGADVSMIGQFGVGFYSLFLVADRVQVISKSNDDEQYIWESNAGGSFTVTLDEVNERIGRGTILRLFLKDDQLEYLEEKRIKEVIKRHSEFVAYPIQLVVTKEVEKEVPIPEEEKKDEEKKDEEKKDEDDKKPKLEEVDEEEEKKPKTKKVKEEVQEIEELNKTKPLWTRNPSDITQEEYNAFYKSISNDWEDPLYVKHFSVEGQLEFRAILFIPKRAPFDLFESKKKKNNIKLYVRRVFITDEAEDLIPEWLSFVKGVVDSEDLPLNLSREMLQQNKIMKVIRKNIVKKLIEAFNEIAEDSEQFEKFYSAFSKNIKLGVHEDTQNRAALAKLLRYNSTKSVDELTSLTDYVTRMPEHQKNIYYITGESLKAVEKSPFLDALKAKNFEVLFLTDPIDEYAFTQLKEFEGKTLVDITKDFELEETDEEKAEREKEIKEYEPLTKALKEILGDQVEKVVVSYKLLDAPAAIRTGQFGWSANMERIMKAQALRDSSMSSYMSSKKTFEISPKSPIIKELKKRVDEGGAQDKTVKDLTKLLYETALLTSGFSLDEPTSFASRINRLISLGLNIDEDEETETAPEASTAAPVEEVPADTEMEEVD

In assay [1] the test system is human colorectal cancer cells (HCT116). Nature of the assay: Growth inhibition assay (cytotoxicity) in HCT116. It counts as cell-based. The settings on record: HCT-116. The procedure:
as §1

The term IC50 denotes the concentration that gives 50% inhibition. A low value points to higher potency. `CCNC(=O)c1noc(-c2cc(C(C)C)c(O)cc2O)c1-c1noc(N2CCOCC2)n1` [Compound I-73, 5-(2,4-Dihydroxy-5-isopropylphenyl)-N-ethyl-4-(5-morpholino-1,2,4-oxadiazol-3-yl)isoxazole-3-carboxamide]: the IC50 against yeast HSP90 is 500 to 1000 nM; in assay [1] it was less than 500 nM.
Consider `CCNC(=O)c1noc(-c2cc(C(C)C)c(O)cc2O)c1-c1cc(CNC(C)C)no1` [Compound I-40, 5-(2,4-Dihydroxy-5-isopropylphenyl)-N-ethyl-3′-((isopropylamino)methyl)-4,5′-biisoxazole-3-carboxamide], for which the IC50 was 500 to 1000 nM at yeast HSP90 and less than 500 nM in assay [1].
As for `CCNC(=O)c1noc(-c2cc(C(C)C)c(O)cc2O)c1-c1noc(C(C)C)n1` [Compound I-65, 5-(2,4-Dihydroxy-5-isopropylphenyl)-N-ethyl-4-(5-isopropyl-1,2,4-oxadiazol-3-yl)isoxazole-3-carboxamide], the IC50 (against yeast HSP90; in assay [1]) was less than 500 nM in each case.
Take `CCNC(=O)c1noc(-c2cc(C(C)C)c(O)cc2O)c1-c1cc(CN2CCN(C)CC2)no1` [Compound I-43, 5-(2,4-Dihydroxy-5-isopropylphenyl)-N-ethyl-3′-((4-methylpiperazin-1-yl)methyl)-4,5′-biisoxazole-3-carboxamide]: the values for the IC50 (on yeast HSP90; in assay [1]) were 500 to 1000 nM and less than 500 nM, respectively.
As to `CCNC(=O)c1noc(-c2cc(C(C)C)c(O)cc2O)c1-c1noc(O)n1` [Compound I-80, 5-(2,4-Dihydroxy-5-isopropylphenyl)-N-ethyl-4-(5-hydroxy-1,2,4-oxadiazol-3-yl)isoxazole-3-carboxamide], the 50% inhibitory concentration (IC50) (against yeast HSP90; in assay [1]) was greater than 1000 nM in each case.
Regarding `CCNC(=O)c1noc(-c2cc(C(C)C)c(O)cc2O)c1-c1noc(N)n1` [Compound I-78, 4-(5-Amino-1,2,4-oxadiazol-3-yl)-5-(2,4-dihydroxy-5-isopropylphenyl)-N-ethylisoxazole-3-carboxamide], the IC50 (on yeast HSP90; in assay [1]) was less than 500 nM throughout.
With `CCNC(=O)c1noc(-c2cc(C(C)C)c(O)cc2O)c1-c1noc(N(C)C)n1` [Compound I-72, 5-(2,4-Dihydroxy-5-isopropylphenyl)-4-(5-(dimethylamino)-1,2,4-oxadiazol-3-yl)-N-ethylisoxazole-3-carboxamide], the IC50 (against yeast HSP90; in assay [1]) was less than 500 nM throughout.
For `CCNC(=O)c1noc(-c2cc(C(C)C)c(O)cc2O)c1-c1cc(C)no1` [Compound I-37, 5-(2,4-Dihydroxy-5-isopropylphenyl)-N-ethyl-3′-methyl-4,5′-biisoxazole-3-carboxamide], the half-inhibitory concentration (IC50) (on yeast HSP90; in assay [1]) was less than 500 nM each time.
For the compound `CCNC(=O)c1noc(-c2cc(C(C)C)c(O)cc2O)c1-c1cc(-c2ccccc2)no1` [Compound I-49, 5-(2,4-Dihydroxy-5-isopropylphenyl)-N-ethyl-3′-phenyl-4,5′-biisoxazole-3-carboxamide], the IC50 (against yeast HSP90; in assay [1]) was 500 to 1000 nM each time.
For `CCNC(=O)c1nc(-c2c(C(=O)NCC)noc2-c2cc(C(C)C)c(O)cc2O)no1` [Compound I-59, 3-(5-(2,4-Dihydroxy-5-isopropylphenyl)-3-(ethylcarbamoyl)isoxazol-4-yl)-N-ethyl-1,2,4-oxadiazole-5-carboxamide], the IC50 against yeast HSP90 is 500 to 1000 nM; in assay [1], less than 500 nM.
The matching figures for `CCNC(=O)c1noc(-c2cc(Cl)c(O)cc2O)c1-c1cc(C(=O)OCC)no1` [Compound I-25, Ethyl 5-(5-chloro-2,4-dihydroxyphenyl)-3-(ethylcarbamoyl)-4,5′-biisoxazole-3′-carboxylate]: 500 to 1000 nM and greater than 1000 nM.
For the compound `CCNC(=O)c1noc(-c2cc(C(C)C)c(O)cc2O)c1-c1noc(C(=O)N(C)C)n1` [Compound I-64, 3-(5-(2,4-Dihydroxy-5-isopropylphenyl)-3-(ethylcarbamoyl)isoxazol-4-yl)-N,N-dimethyl-1,2,4-oxadiazole-5-carboxamide], the IC50 (against yeast HSP90; in assay [1]) was less than 500 nM throughout.
In the case of `CCNC(=O)c1noc(-c2cc(C(C)C)c(O)cc2O)c1-c1cc(CNC(C)=O)no1` [Compound I-31, 3′-(Acetamidomethyl)-5-(2,4-dihydroxy-5-isopropylphenyl)-N-ethyl-4,5′-biisoxazole-3-carboxamide], the IC50 was 500 to 1000 nM on yeast HSP90 and less than 500 nM in assay [1].
Take `CCNC(=O)c1noc(-c2cc(C(C)C)c(O)cc2O)c1-c1nnn[nH]1` [Compound I-10, 5-(2,4-Dihydroxy-5-isopropylphenyl)-N-ethyl-4-(1H-tetrazol-5-yl)isoxazole-3-carboxamide]: the half-maximal inhibitory concentration (IC50) against yeast HSP90 was 500 to 1000 nM; in assay [1], greater than 1000 nM.
For the compound `CCNC(=O)c1noc(-c2cc(C(C)C)c(O)cc2O)c1-c1cc(COCC(=O)O)no1` [Compound I-33, 2-((5-(2,4-Dihydroxy-5-isopropylphenyl)-3-(ethylcarbamoyl)-4,5′-biisoxazol-3′-yl)methoxy)acetic acid], the IC50 (against yeast HSP90; in assay [1]) was greater than 1000 nM in each case.
As for `CCNC(=O)c1noc(-c2cc(C(C)C)c(O)cc2O)c1-c1noc(-c2ccco2)n1` [Compound I-63, 5-(2,4-Dihydroxy-5-isopropylphenyl)-N-ethyl-4-(5-(furan-2-yl)-1,2,4-oxadiazol-3-yl)isoxazole-3-carboxamide], the IC50 (at yeast HSP90; in assay [1]) was less than 500 nM in each case.
On to `CCNC(=O)C1=NOC(c2c(C(=O)NCC)noc2-c2cc(C(C)C)c(O)cc2O)C1` (centres unmarked) [Compound I-8, 5-(2,4-Dihydroxy-5-isopropylphenyl)-N-ethyl-4-(3-(ethylcarbamoyl)-4,5-dihydroisoxazol-5-yl)isoxazole-3-carboxamide], for which the IC50 at yeast HSP90 is 500 to 1000 nM; in assay [1] it was less than 500 nM.
The matching figures for `CCNC(=O)c1noc(-c2cc(C(C)C)c(O)cc2O)c1-c1noc(-c2ccccc2)n1` [Compound I-61, 5-(2,4-Dihydroxy-5-isopropylphenyl)-N-ethyl-4-(5-phenyl-1,2,4-oxadiazol-3-yl) isoxazole-3-carboxamide]: less than 500 nM and less than 500 nM.
On the same counts, the results for `CCNC(=O)c1noc(-c2cc(C(C)C)c(O)cc2O)c1-c1cc(CNCCO)no1` [Compound I-22, 5-(2,4-Dihydroxy-5-isopropylphenyl)-N-ethyl-3′-((2-hydroxyethylamino)methyl)-4,5′-biisoxazole-3-carboxamide] are 500 to 1000 nM and less than 500 nM.
On the same counts, the results for `CCNCc1cc(-c2c(C(=O)NCC)noc2-c2cc(C(C)C)c(O)cc2O)on1` [Compound I-27, 5-(2,4-Dihydroxy-5-isopropylphenyl)-N-ethyl-3′-((ethylamino)methyl)-4,5′-biisoxazole-3-carboxamide] are less than 500 nM and less than 500 nM.
On to `CCNC(=O)c1noc(-c2cc(C(C)C)c(O)cc2O)c1-c1noc(-c2ccc(OC)cc2)n1` [Compound I-84, 5-(2,4-Dihydroxy-5-isopropylphenyl)-N-ethyl-4-(5-(4-methoxyphenyl)-1,2,4-oxadiazol-3-yl)isoxazole-3-carboxamide], for which the 50% inhibitory concentration (IC50) (at yeast HSP90; in assay [1]) was 500 to 1000 nM in each case.
On to `CCNC(=O)c1noc(-c2cc(C(C)C)c(O)cc2O)c1-c1noc(N(CC)CC)n1` [Compound I-76, 4-(5-(Diethylamino)-1,2,4-oxadiazol-3-yl)-5-(2,4-dihydroxy-5-isopropylphenyl)-N-ethylisoxazole-3-carboxamide], for which the 50% inhibitory concentration (IC50) (on yeast HSP90; in assay [1]) was less than 500 nM throughout.
